Measurements as given in patent US12616698B2, “Methods for reducing liver fat and for treating fatty liver disorders” (Corcept Therapeutics Incorporated, priority 2021, dated 2026).

System: C57BL/6J male mice
Assay: AMLN diet NASH mouse model, drug provided in the AMLN diet
Format: in vivo
Settings: 60 mg/kg mifepristone in AMLN diet, 8 weeks, vs diet-alone control (FIG. 8A)
Procedure: Two studies were conducted in C57BL/6J male mice (n=12 per group) maintained on a diet high in fat (40%), cholesterol (2%) and fructose (20%; referred to as the AMLN diet: see, e.g., Tolbol et al., World Journal of Gastroenterology, 24(2):179-194 (2018)) for 42 weeks before dosing with miricorilant was initiated. In the first study, all animals ate the AMLN diet, and received either placebo, 30 mg/kg miricorilant, or 60 mg/kg mifepristone once per day orally. […] All animals received the AMLN diet for 42 weeks prior to receiving their first dose of study drug or placebo. 4 weeks prior to receiving that first dose, a liver biopsy and histological examination of biopsy tissue was performed for each animal; 3 weeks prior to receiving that first dose, animals were randomized into three groups: control, miricorilant, or mifepristone. Only mice with fibrosis stage >=1 and steatosis score >=2 were allowed in the study and the groups were stratified according to liver col1a1 so that each study group had similar overall distributions of liver col1a1 among the mice. All animals continued on the study diet for the 3 weeks following randomization, at which time study drug or placebo administration began. All animals received their assigned drugs for 8 weeks (the 8 week in vivo study period). At 56 days (week 8) after initiation of drug administration, plasma ALT, AST, triglycerides, total cholesterol, and miricorilant levels were measured, and animals were sacrificed, liver necropsies were performed, liver histological ((NAFLD Activity Score, Fibrosis Stage, steatosis (scored using hematoxylin and eosin staining (HE)), col1a (scored using immunohistochemistry (IHC)) and Galectin-3 (IHC)) and liver biochemical measurements (including liver triglycerides and total cholesterol) were made, and liver and plasma samples were obtained for genetic ((e.g., RNA sequencing) and other analyses.
Thus, in these studies, the mice were subjected to a liver biopsy approximately 4 weeks before initiation of dosing with miricorilant and only mice with confirmed fibrosis (fibrosis stage ≥1) and steatosis (score ≥2) were entered into the study. At the end of the dosing period, blood samples were collected for determination of plasma ALT, AST, triglycerides, total cholesterol, and miricorilant. Liver samples were collected for analysis of triglycerides, total cholesterol, hydroxyproline, and histopathology. Body weight and food consumption were monitored throughout the study.
Type I collagen IHC staining Type I collagen (Southern Biotech, Cat. 1310-01) IHC were performed using standard procedures. Briefly, after antigen retrieval and blocking of endogenous peroxidase activity, slides were incubated with primary antibody. The primary antibody was detected using a polymeric HRP-linker antibody conjugate. Next, the primary antibody was visualized with DAB as chromogen. Finally, sections were counterstained in hematoxylin and cover-slipped.
Liver Galectin-3 content Galectin-3 (Biolegend, Cat. #125402) IHC was performed using standard procedures. Briefly, after antigen retrieval and blocking of endogenous peroxidase activity, slides were incubated with primary antibody. The primary antibody was detected using a linker secondary antibody followed by amplification using a polymeric HRP-linker antibody conjugate. Next, the primary antibody was visualized with DAB as chromogen. Finally, sections were counterstained in hematoxylin and cover-slipped.
Total liver col1a1 was evaluated from liver samples stained with anti-type I collagen (col1a1) (Southern Biotech, cat. 1310-01) at the end of the treatment period (typically using low power (20×) magnification). Galectin-3 content was evaluated from images of liver samples stained with anti-Galectin-3 (BioLegend, Cat. 125402) at the end of the treatment period (typically using low power (20×) magnification). Terminal relative (left) and total (right) liver type I Collagen (Col1a1) quantification was determined by morphometry. […]

With `CC#C[C@]1(O)CC[C@H]2[C@@H]3CCC4=CC(=O)CCC4=C3[C@@H](c3ccc(N(C)C)cc3)C[C@@]21C` [mifepristone, reference compound] the “Liver weight at termination of the study” value was “significantly increased”.
